# Measurements as given in paper PMC9167041 (Computational and Structural Biotechnology Journal, 2022).
# Target: SARS-CoV-2 M^pro (Severe acute respiratory syndrome coronavirus 2, UniProt P0DTD1)
# Assay: SARS-CoV-2 Mpro in vitro enzyme-based assay
# Assay type: biochemical
# Settings: compound at 10 μM
compound,measurement,value
C=C1CCC2[C@](C)(COC(C)=O)[C@H](OC(C)=O)CC[C@@]2(C)[C@@H]1C[C@H](SC(=S)N1CCN(C(=O)C2COc3ccccc3O2)CC1)C1=CCOC1=O (stereo partly shown) [3j],inhibition of SARS-CoV-2 M^pro,rather low inhibitory effect
